In patent publication US6964974B2, “2,3-oxidosqualene-lanosterol cyclase inhibitors” (Hoffmann-La Roche Inc., priority 2000, dated 2005):

melting point: 73 to 74.8 °C
SMILES: CCCN(C)CCCCC1CCN(S(=O)(=O)c2ccc(C(F)(F)F)cc2)CC1 [Example 20.1, Methyl-propyl-{4-[1-(4-trifluoromethyl-benzenesulfonyl)-piperidin-4-yl]-butyl}-amine]
